Source: patent US6506766B1 (Abbott Laboratories, priority 1998, dated 2003)
Read-outs that look alike come from different tables or passages of the source.

What was measured:
[1] = target: T1, human glucocorticoid receptor-α [GRX] isoform (Homo sapiens, UniProt P04150); assay: Radioligand binding with human glucocorticoid receptor cytosol ([3H]-dexamethasone competition)
T1 construct: host or cells: insect SF21 cells (baculovirus)
T1 sequence (P04150 1-777): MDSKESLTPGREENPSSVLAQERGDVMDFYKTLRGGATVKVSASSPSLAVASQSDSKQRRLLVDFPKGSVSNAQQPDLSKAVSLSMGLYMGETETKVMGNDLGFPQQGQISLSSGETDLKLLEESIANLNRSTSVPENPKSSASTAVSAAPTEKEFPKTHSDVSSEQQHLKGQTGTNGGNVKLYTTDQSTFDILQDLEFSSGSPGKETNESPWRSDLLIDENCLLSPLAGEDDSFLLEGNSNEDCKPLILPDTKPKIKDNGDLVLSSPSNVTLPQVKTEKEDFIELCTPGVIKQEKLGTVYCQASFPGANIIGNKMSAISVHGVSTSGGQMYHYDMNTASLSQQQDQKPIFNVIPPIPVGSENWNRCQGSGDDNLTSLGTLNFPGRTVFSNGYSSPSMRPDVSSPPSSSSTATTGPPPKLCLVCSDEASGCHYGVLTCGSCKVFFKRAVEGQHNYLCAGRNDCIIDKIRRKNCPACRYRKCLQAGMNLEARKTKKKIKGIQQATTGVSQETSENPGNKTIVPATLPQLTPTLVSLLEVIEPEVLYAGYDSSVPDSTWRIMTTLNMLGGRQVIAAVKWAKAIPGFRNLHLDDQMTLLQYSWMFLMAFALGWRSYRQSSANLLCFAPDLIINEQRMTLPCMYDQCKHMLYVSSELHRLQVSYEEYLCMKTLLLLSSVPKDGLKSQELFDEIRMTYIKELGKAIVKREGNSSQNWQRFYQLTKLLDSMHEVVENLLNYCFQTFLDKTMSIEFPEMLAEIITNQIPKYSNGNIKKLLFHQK

[2] = target: T2, human progesterone receptor-A [PRA] isoform (Homo sapiens, UniProt P06401); assay: Radioligand binding with human progesterone receptor cytosol ([3H]-progesterone competition)
T2 construct: host or cells: insect SF21 cells (baculovirus)
T2 sequence (P06401 1-769 isoform P06401-2): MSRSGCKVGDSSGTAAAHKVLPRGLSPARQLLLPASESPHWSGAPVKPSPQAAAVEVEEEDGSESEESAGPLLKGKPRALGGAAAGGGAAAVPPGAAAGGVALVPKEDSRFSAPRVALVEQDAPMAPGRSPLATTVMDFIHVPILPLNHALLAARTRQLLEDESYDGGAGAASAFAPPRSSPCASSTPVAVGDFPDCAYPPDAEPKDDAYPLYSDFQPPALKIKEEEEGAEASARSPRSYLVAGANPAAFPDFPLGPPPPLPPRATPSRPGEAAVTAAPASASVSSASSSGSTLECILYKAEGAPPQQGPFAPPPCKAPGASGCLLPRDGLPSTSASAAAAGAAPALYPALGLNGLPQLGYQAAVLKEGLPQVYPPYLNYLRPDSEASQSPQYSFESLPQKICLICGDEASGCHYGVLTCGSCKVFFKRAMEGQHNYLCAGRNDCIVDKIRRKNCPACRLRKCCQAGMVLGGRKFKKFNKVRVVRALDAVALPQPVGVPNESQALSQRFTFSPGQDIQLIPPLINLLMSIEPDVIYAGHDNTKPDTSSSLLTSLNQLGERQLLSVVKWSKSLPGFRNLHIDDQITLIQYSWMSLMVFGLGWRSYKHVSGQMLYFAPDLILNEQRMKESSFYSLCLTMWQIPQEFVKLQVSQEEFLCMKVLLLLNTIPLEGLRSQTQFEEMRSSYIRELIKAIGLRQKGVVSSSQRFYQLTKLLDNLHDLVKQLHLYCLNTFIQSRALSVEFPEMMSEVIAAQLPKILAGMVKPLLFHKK

[3] = GRX cytosol expressed in insect SF21 cells, [3H]-Dex ~0.9 nM, 4° C. overnight, Ki by Cheng-Prusoff, KL ~[…], read-out: Ki (nM) GR
[4] = PRA cytosol expressed in insect SF21 cells, [3H]Prog ~0.8 nM, 4° C. overnight, Ki by Cheng-Prusoff, KL ~4.5 nM, read-out: Ki (nM) PR

Row | Ki [1, 3] [nM] | Ki [2, 4] [nM] | Structure (SMILES) | Ki ([1]; Ki (nM) GR) [nM] | Ki ([2]; Ki (nM) PR) [nM]
1 | 39 | ≥ 10000 | COc1cccc2c1-c1ccc3c(c1C(c1cc(C)cc(N4CCOCC4)c1)O2)C(C)=CC(C)(C)N3 (centres unmarked) [Example 17, 2,5-Dihydro-10-methoxy-2,2,4-trimethyl-5-[3-methyl-5-(1-morpholinyl)phenyl]-1H-[1]benzopyrano[3,4-f]quinoline] |  | 
2 | 10.7 | 4020 | COc1cccc2c1-c1ccc3c(c1C(c1cccc(C(F)(F)F)c1)O2)C(C)=CC(C)(C)N3 (centres unmarked) [Example 21, 2,5-Dihydro-10-methoxy-2,2,4-trimethyl-5-[3-(trifluoromethyl)phenyl]-1H-[1]benzopyrano[3,4-f]quinoline] |  | 
3 | 3.5 | 14800 | COc1cccc2c1-c1ccc3c(c1C(c1cccc(C)c1)O2)C(C)=CC(C)(C)N3 (centres unmarked) [Example 24, 2,5-Dihydro-10-methoxy-2,2,4-trimethyl-5-(3-methylphenyl)-1H-[1]benzopyrano[3,4-f]quinoline] |  | 
4 | 7.7 | 7760 | COc1cccc2c1-c1ccc3c(c1C(c1ccc(C)c(C)c1)O2)C(C)=CC(C)(C)N3 (centres unmarked) [Example 29, 5-(3,4-Dimethylphenyl)-2,5-dihydro-10-methoxy-2,2,4-trimethy-1H-[1]benzopyrano[3,4-f]quinoline] |  | 
5 | 13 | 7920 | COc1cccc2c1-c1ccc3c(c1C(c1ccc(F)cc1)O2)C(C)=CC(C)(C)N3 (centres unmarked) [Example 30, 5-(4-Fluorophenyl)-2,5-dihydro-10-methoxy-2,2,4-trimethyl-1H-[1]benzopyrano[3,4-f]quinoline] |  | 
6 | 12.2 | ≥ 10000 | COc1cccc2c1-c1ccc3c(c1C(c1cc(C(F)(F)F)cc(C(F)(F)F)c1)O2)C(C)=CC(C)(C)N3 (centres unmarked) [Example 31, 5-[3,5-bis(Trifluoromethyl)phenyl]-2,5-dihydro-10-methoxy-2,2,4-trimethyl-1H-[1]benzopyrano[3,4-f]quinoline] |  | 
7 | 207 | ≥ 10000 | COc1cccc2c1-c1ccc3c(c1CO2)C(C)=CC(C)(C)N3 [Example 38, 2,5-Dihydro-10-methoxy-2,2,4-trimethyl-1H-[1]benzopyrano[3,4-f]quinoline] |  | 
8 | 190 | 19500 | COc1cccc2c1-c1ccc3c(c1C(C#N)O2)C(C)=CC(C)(C)N3 (centres unmarked) [Example 44, 2,5-Dihydro-10-methoxy-2,2,4-trimethyl-1H-[1]benzopyrano[3,4-f]quinoline-5-carbonitrile] |  | 
9 | 174 | ≥ 10000 | COc1cccc2c1-c1ccc3c(c1C(CC(=O)c1ccccc1)O2)C(C)=CC(C)(C)N3 (centres unmarked) [Example 47, 2-(2,5-Dihydro-10-methoxy-2,2,4-trimethyl-1H-[1]benzopyrano[3,4-f]quinolin-5-yl)-1-phenylethanone] |  | 

Continued, compound first:

Row | Structure (SMILES) | Ki [1, 3] [nM] | Ki [2, 4] [nM] | Ki ([1]; Ki (nM) GR) [nM] | Ki ([2]; Ki (nM) PR) [nM]
10 | COc1cccc2c1-c1ccc3c(c1C(c1cccc(OC(=O)N(C)C)c1)O2)C(C)=CC(C)(C)N3 (centres unmarked) [Example 15, [3-(2,5-Dihydro-10-methoxy-2,2,4-trimethyl-1H-[1]benzopyrano[3,4-f]quinolin-5-yl)phenyl]dimethylcarbamate] |  |  | 2.5 | ≥ 10000
11 | COc1cccc2c1-c1ccc3c(c1C(c1cc(C)cc(-c4ccco4)c1)O2)C(C)=CC(C)(C)N3 (centres unmarked) [Example 16, 5-[3-(2-Furanyl)-5-methylphenyl]-2,5-dihydro-10-methoxy-2,2,4-trimethyl-1H-[1]benzopyrano[3,4-f]quinoline] | 8 | ≥ 10000 |  | 
12 | COc1ccc(C2Oc3cccc(OC)c3-c3ccc4c(c32)C(C)=CC(C)(C)N4)cc1 (centres unmarked) [Example 22, 2,5-Dihydro-10-methoxy-5-(4-methoxyphenyl)-2,2,4-trimethyl-1H-[1]benzopyrano[3,4-f]quinoline] | 6.5 | ≥ 10000 |  | 
13 | COc1cccc2c1-c1ccc3c(c1C(c1cccc(Cl)c1)O2)C(C)=CC(C)(C)N3 (centres unmarked) [Example 23, 5-(3-Chlorophenyl)-2,5-dihydro-10-methoxy-2,2,4-trimethyl-1H-[1]benzopyrano[3,4-f]quinoline] | 8.2 | 6150 |  | 
14 | COc1cccc2c1-c1ccc3c(c1C(c1cc(C)cc(C)c1)O2)C(C)=CC(C)(C)N3 (centres unmarked) [Example 27, 5-(3,5-Dimethylphenyl)-2,5-dihydro-10-methoxy-2,2,4-trimethyl-1H-[1]benzopyrano[3,4-f]quinoline] |  | 3580 | 5.2 | 
15 | COc1cccc2c1-c1ccc3c(c1C(c1ccc(Cl)cc1)O2)C(C)=CC(C)(C)N3 (centres unmarked) [Example 28, 5-(4-Chlorophenyl)-2,5-dihydro-10-methoxy-2,2,4-trimethyl-1H-[1]benzopyrano[3,4-f]quinoline] | 4.7 | 3270 |  | 
16 | COc1cccc2c1-c1ccc3c(c1C(c1cc(F)cc(F)c1)O2)C(C)=CC(C)(C)N3 (centres unmarked) [Example 34, 5-(3,5-Difluorophenyl)-2,5-dihydro-10-methoxy-2,2,4-trimethyl-1H-[1]benzopyrano[3,4-f]quinoline] | 4 | 4710 |  | 
17 | COc1cccc2c1-c1ccc3c(c1C(N(C)c1ccccc1)O2)C(C)=CC(C)(C)N3 (centres unmarked) [Example 35, 2,5-Dihydro-10-methoxy-2,2,4,N-tetramethyl-N-phenyl-1H-[1]benzopyrano[3,4-f]quinolin-5-amine] | 260 | ≥ 10000 |  | 
18 | COc1cccc2c1-c1ccc3c(c1C(c1ccc(N(C)C)cc1)O2)C(C)=CC(C)(C)N3 (centres unmarked) [Example 39, 4-(2,5-Dihydro-10-methoxy-2,2,4-trimethyl-1H-[1]benzopyrano[3,4-f]quinolin-5-yl)-N,N-dimethylbenzenamine] | 31 | ≥ 10000 |  | 
19 | COc1ccc(C2Oc3cccc(OC)c3-c3ccc4c(c32)C(C)=CC(C)(C)N4)s1 (centres unmarked) [Example 40, 2,5-Dihydro-10-methoxy-2,2,4-trimethyl-5-(5-methoxy-2-thienyl)1H-[1]benzopyrano[3,4-f]quinoline] | 18 | 18100 |  | 
20 | CCCc1ccc(C2Oc3cccc(OC)c3-c3ccc4c(c32)C(C)=CC(C)(C)N4)s1 (centres unmarked) [Example 41, 2,5-Dihydro-10-methoxy-2,2,4-trimethyl-5-(5-propyl-2-thienyl)-1H-[1]benzopyrano[3,4-f]quinoline] | 9.5 | 3300 |  | 
21 | COc1cccc2c1-c1ccc3c(c1C(c1ccc(N4CCOCC4)cc1)O2)C(C)=CC(C)(C)N3 (centres unmarked) [Example 42, 2,5-Dihydro-10-methoxy-2,2,4-trimethyl-5-[4-(1-morpholinyl)phenyl]1H-[1]benzopyrano[3,4-f]quinoline] | 99 | ≥ 10000 |  | 
22 | COc1cccc2c1-c1ccc3c(c1C(CC(=O)C(C)(C)C)O2)C(C)=CC(C)(C)N3 (centres unmarked) [Example 43, 1-(2,5-Dihydro-10-methoxy-2,2,4-trimethyl-1H-[1]benzopyrano[3,4-f]quinolin-5yl)-3,3-dimethyl-2-butanone] | 72 | ≥ 10000 |  | 
23 | COC(=O)CC1Oc2cccc(OC)c2-c2ccc3c(c21)C(C)=CC(C)(C)N3 (centres unmarked) [Example 46, Methyl 2,5-Dihydro-10-methoxy-2,2,4-trimethyl-1H-[1]benzopyrano[3,4-f]quinoline-5-acetate] | 2.7 | 3440 |  | 
24 | C=C(CCl)CC1Oc2cccc(OC)c2-c2ccc3c(c21)C(C)=CC(C)(C)N3 (centres unmarked) [Example 48, 5-[2-(Chloromethyl)-2-propenyl]-2,5-dihydro-10-methoxy-2,2,4-trimethyl-1H-[1]benzopyrano[3,4-f]quinoline] | 5.8 | 2770 |  | 
25 | C=C(COC(C)=O)CC1Oc2cccc(OC)c2-c2ccc3c(c21)C(C)=CC(C)(C)N3 (centres unmarked) [Example 49] | 13 | ≥ 10000 |  | 
